Assays:
[1] = test system: IgG designated catalytic antibody 48G7, monoclonal antibody elicited to the tetrahedral nitrophenyl phosphonate transition-state analogue (2); assay: Antibody-catalysed hydrolysis of carbonate (1), followed by the increase in absorbance at 400 nm (nitrophenolate ion release), Michaelis-Menten kinetics; format: biochemical, BALB/C mice
Protocol: BALB/C mice were immunized with the BSA-phosphonate conjugate emulsified in complete Freund's adjuvant. A fusion was carried out by standard methods using SP2/0 myeloma as the fusion partner. IgG was purified from ascites fluid by affinity chromatography on protein A coupled Sepharose 4B and dialyzed exhaustively against reaction buffer.
The rates of hydrolysis of carbonate I (1) in the presence (kobsd) and the absence (kun) of 4.4 µM antibody were determined as a function of substrate concentration. Carbonate hydrolysis was followed in 10 mM Tris-HCl, pH 8.5 at 30°C, by following the increase in absorbance at 400 nm due to nitrophenolate ion release.

catalytic antibody 48G7 = assay: pH-based catalytic antibody biosensor: differential electrode response to MpNPC after incubation in transition state analog; format: biochemical, BALB/C mice; conditions: electrodes incubated in 50 µM TSA; pH 8.5 buffer (0.14 M KCl, 0.01 M Tris, 0.02% sodium azide); substrate MpNPC
Description: A pH-based catalytic antibody biosensor incorporating catalytic antibodies as enzyme mimics in a configuration similar to that of enzyme electrodes was used to measure the pH change resulting from the catalyzed hydrolysis of methyl p-nitrophenylcarbonate (MpNPC). […] The catalytic antibody 48G7 is synthesized and its catalytic activity identified in accordance with the methodology described in Example 1.
The catalytic antibody 48G7 produces a relatively small rate of acceleration as compared to natural enzymes. Consequently, the observed pH difference is small but is easily measurable in a reproducible manner. […] Two miniature pH electrodes 152 and 154 were employed and the difference between the two was monitored. […]
The electrical potential of the two miniature pH electrodes 152 and 154 (Microelectrodes Inc., model MI-404) was monitored relative to a single Ag/AgCl reference electrode 156 in an nonthermostated vessel 158 as shown in Fig. 13 using two Keithley 617 electrometers 160. […]
The reference electrode 156 and the two pH electrodes 152 and 154 were placed in 2.5 ml of a pH 8.5 buffer (0.14 M KCl, 0.01 M Tris, 0.02% sodium azide) and allowed to stabilize for […]. […] The response to MpNPC was measured after approximately 12 hours in solution (not shown) but the remainder of the measurements were performed after approximately 36 hours in solution. […]

[2] = 4.4 µM antibody, 10 mM Tris-HCl, pH 8.5 at 30°C, first pair of values printed
[3] = second pair of values printed ("This IgG", designated 48G7)

| SMILES | Km [1, 2] [µM] | kcat [1, 2] [s⁻¹] | rate acceleration above background ([1]; antibody-catalysed versus background rate) | Km [1, 3] [µM] | kcat [1, 3] [s⁻¹] | inhibition of catalysis (MpNPC hydrolysis) (catalytic antibody 48G7) |
| --- | --- | --- | --- | --- | --- | --- |
| COC(=O)Oc1ccc([N+](=O)[O-])cc1 [carbonate (1), methyl p-nitrophenylcarbonate] | 660 | 0.0233 ± 0.00333 | 16,000 | 350 | 0.483 |  |
| COP(=O)(O)Oc1ccc([N+](=O)[O-])cc1 [transition state analog (TSA), methyl p-nitrophenylphosphate] |  |  |  |  |  | effectively inhibits the catalysis |
